Test results as given in the NIST ThermoML archive (doi:10.1021/je700177n).
± gives the expanded uncertainty stated by the source. Blank lines part the entries; values can stand above or below the compound they belong to.

What was measured:
[1] = refractive index (Na D-line) (dimensionless); wn = mass fraction of the nth substance listed; conditions: 333.15 K, 101 kPa, Liquid
[2] = wn = mass fraction of the nth substance listed; conditions: 333.15 K, 101 kPa, Liquid

refractive index ([1]; w1 = 0.1): 1.341 ± 0.005
refractive index ([1]; w1 = 0.2): 1.359 ± 0.005
refractive index ([1]; w1 = 0.3): 1.375 ± 0.005
refractive index ([1]; w1 = 0.4): 1.395 ± 0.005
refractive index ([1]; w1 = 0.5): 1.416 ± 0.005
refractive index ([1]; w1 = 0.6): 1.432 ± 0.005
refractive index ([1]; w1 = 0.7): 1.455 ± 0.005
refractive index ([1]; w1 = 0.8): 1.477 ± 0.005
refractive index ([1]; w1 = 0.9): 1.506 ± 0.005
mass density ([2]; w1 = 0.1): 1022 ± 2 kg/m3
viscosity ([2]; w1 = 0.1): 29.4 mPa·s
mass density ([2]; w1 = 0.2): 1063 ± 3 kg/m3
viscosity ([2]; w1 = 0.2): 34.8 mPa·s
mass density ([2]; w1 = 0.3): 1109 ± 3 kg/m3
viscosity ([2]; w1 = 0.3): 43.8 mPa·s
mass density ([2]; w1 = 0.4): 1157 ± 4 kg/m3
viscosity ([2]; w1 = 0.4): 63 mPa·s
mass density ([2]; w1 = 0.5): 1207 ± 5 kg/m3
viscosity ([2]; w1 = 0.5): 107.1 mPa·s
mass density ([2]; w1 = 0.6): 1268 ± 6 kg/m3
viscosity ([2]; w1 = 0.6): 264.6 mPa·s
mass density ([2]; w1 = 0.7): 1334 ± 7 kg/m3
viscosity ([2]; w1 = 0.7): 409.2 mPa·s
mass density ([2]; w1 = 0.8): 1376 ± 8 kg/m3
viscosity ([2]; w1 = 0.8): 430.8 mPa·s
Compound: O=C[C@H](O)[C@@H](O)[C@H](O)[C@H](O)CO [D-glucose] + O

refractive index ([1]; w2 = 0): 1.326 ± 0.005
Compound: O [water] + O=C[C@H](O)[C@@H](O)[C@H](O)[C@H](O)CO
